Consider 20 molecules from patent US11524966B1 (Valo Early Discovery, Inc., priority 2017, dated 2022).

In this experiment the target is T1, USP28 (His-tagged USP28-FL-mammalian) (Homo sapiens, UniProt Q96RU2).
T1 construct: Expression of USP28 (1-1077)-TEV-6*His (pTT5 vector); made in house; host or cells: Expi293f cells (pTT5 vector)
T1 sequence (Q96RU2 1-1077): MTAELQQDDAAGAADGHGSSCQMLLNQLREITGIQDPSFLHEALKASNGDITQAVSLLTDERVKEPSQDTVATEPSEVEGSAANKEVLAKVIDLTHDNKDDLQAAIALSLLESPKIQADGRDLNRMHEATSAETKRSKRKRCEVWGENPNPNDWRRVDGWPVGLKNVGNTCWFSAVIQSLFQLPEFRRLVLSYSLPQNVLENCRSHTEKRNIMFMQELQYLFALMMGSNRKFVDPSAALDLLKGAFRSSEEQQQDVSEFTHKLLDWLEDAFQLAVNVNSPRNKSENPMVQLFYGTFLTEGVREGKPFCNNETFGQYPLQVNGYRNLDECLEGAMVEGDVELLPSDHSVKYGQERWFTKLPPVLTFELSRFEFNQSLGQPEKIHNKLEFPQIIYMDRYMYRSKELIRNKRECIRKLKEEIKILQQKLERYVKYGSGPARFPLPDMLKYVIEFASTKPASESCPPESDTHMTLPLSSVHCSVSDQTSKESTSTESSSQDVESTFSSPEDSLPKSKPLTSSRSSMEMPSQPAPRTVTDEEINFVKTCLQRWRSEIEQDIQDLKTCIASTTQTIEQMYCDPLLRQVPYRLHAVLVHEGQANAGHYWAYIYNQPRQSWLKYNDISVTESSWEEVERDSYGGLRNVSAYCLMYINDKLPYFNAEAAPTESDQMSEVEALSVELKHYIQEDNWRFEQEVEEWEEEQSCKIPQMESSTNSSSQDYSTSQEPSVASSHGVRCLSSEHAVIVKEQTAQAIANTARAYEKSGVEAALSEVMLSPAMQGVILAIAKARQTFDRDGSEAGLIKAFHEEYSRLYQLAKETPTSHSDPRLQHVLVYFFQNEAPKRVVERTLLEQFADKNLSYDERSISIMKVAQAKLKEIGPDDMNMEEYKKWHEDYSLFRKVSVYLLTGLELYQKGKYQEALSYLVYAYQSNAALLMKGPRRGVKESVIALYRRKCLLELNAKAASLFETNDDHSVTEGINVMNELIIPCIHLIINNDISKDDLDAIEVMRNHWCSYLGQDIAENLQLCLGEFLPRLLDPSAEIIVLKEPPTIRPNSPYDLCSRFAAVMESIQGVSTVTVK
As to the kind of experiment: Ubiquitin-Rhodamine 110 Assay for USP28 Activity, Example A-1(a). It counts as biochemical. The following applies: Ubiquitin-Rhodamine 110 assay, Example A-1(a); read-out: USP28 A-1(a) IC50 range. In outline:
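Full-length His-tagged USP28 (1-1077, Expi293F-expressed; […]) was preincubated 30 min with compound (25 μM–1.3 nM, 10-point 3-fold) in 20 mM Tris-HCl pH 8.0, 3 mM BME, 0.03% BGG, 0.01% Triton X-100. Ub-Rh110 (25 nM) was then added for 45 min at room temperature, stopped with citric acid, and read by fluorescence (485/535 nm).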
Usually IC50 stands for the concentration that gives 50% inhibition. Regarding `COC[C@@H]1CN(c2ccc3c(n2)CC[C@H](NC(=O)c2sc4nc(C)cnc4c2N)C3)C[C@@H]1N` [Example 298, 7-amino-N-[(6S)-2-[(3R,4R)-3-amino-4-(methoxymethyl)pyrrolidin-1-yl]-5,6,7,8-tetrahydroquinolin-6-yl]-3-methylthieno[2,3-b]pyrazine-6-carboxamide], the concentration for half-maximal inhibition (IC50) was in the range of 200 to 2000 nM.
On to `COC[C@H]1C[C@H](N)CN1c1ccc2c(c1)OC[C@H](NC(=O)c1sc3nc(C)ccc3c1N)C2` [Example 261, 3-amino-N-[(3R)-7-[(2R,4S)-4-amino-2-(methoxymethyl)pyrrolidin-1-yl]-3,4-dihydro-2H-1-benzopyran-3-yl]-6-methylthieno[2,3-b]pyridine-2-carboxamide], for which the IC50 was 1 to 50 nM.
As to `CO[C@H]1CCN(c2ccc3c(c2)OC[C@H](NC(=O)c2sc4nc(C)cc(C)c4c2N)C3)C[C@@H]1N` [Example 317, 3-amino-N-[(3R)-7-[(3S,4S)-3-amino-4-methoxypiperidin-1-yl]-3,4-dihydro-2H-1-benzopyran-3-yl]-4,6-dimethylthieno[2,3-b]pyridine-2-carboxamide], the IC50 lay within 1 to 50 nM.
Turning to `Cc1ccc2c(N)c(C(=O)N[C@H]3CCc4nc(N5C[C@H]6NCCC(F)(F)[C@H]6C5)ccc4C3)sc2n1` [Example 329, N-[(6S)-2-[(4aS,7aS)-4,4-difluoro-octahydro-1H-pyrrolo[3,4-b]pyridin-6-yl]-5,6,7,8-tetrahydroquinolin-6-yl]-3-amino-6-methylthieno[2,3-b]pyridine-2-carboxamide], the IC50 lay within 50 to 200 nM.
As for `Cc1ccc2c(N)c(C(=O)N[C@H]3COc4cc(N5C[C@@H](N)[C@]6(CCCO6)C5)ccc4C3)sc2n1` [Example 309, 3-amino-N-[(3R)-7-[(5S,9R)-9-amino-1-oxa-7-azaspiro[4.4]nonan-7-yl]-3,4-dihydro-2H-1-benzopyran-3-yl]-6-methylthieno[2,3-b]pyridine-2-carboxamide], the figure is 1 to 50 nM; as for `COC[C@@H]1CN(c2cc(F)c3c(c2F)OC[C@H](NC(=O)c2sc4nc(C)cc(C)c4c2N)C3)C[C@@H]1N` [Example 277, 3-amino-N-[(3R)-7-[(3R,4R)-3-amino-4-(methoxymethyl)pyrrolidin-1-yl]-5,8-difluoro-3,4-dihydro-2H-1-benzopyran-3-yl]-4,6-dimethylthieno[2,3-b]pyridine-2-carboxamide], 1 to 50 nM; as for `CO[C@@H]1CCN(c2ccc3c(n2)CC[C@H](NC(=O)c2sc4nc(C)ccc4c2N)C3)C[C@H]1N` (single isomer, unassigned) [Example 316], 50 to 200 nM.
Then `Cc1ccc2c(N)c(C(=O)N[C@H]3COc4cc(N5C[C@@H](N)[C@H](C(F)F)C5)ccc4C3)sc2n1` [Example 295, 3-amino-N-[(3R)-7-[(3S,4R)-3-amino-4-(difluoromethyl)pyrrolidin-1-yl]-3,4-dihydro-2H-1-benzopyran-3-yl]-6-methylthieno[2,3-b]pyridine-2-carboxamide], with 1 to 50 nM; and `COC[C@@H]1CN(c2nc3c(cc2F)C[C@@H](NC(=O)c2sc4nc(C)ccc4c2N)CC3)C[C@@H]1N` [Example 300, 3-amino-N-[(6S)-2-[(3R,4R)-3-amino-4-(methoxymethyl)pyrrolidin-1-yl]-3-fluoro-5,6,7,8-tetrahydroquinolin-6-yl]-6-methylthieno[2,3-b]pyridine-2-carboxamide], with 200 to 2000 nM.
Consider `CO[C@@H]1CN(c2ccc3c(c2)OC[C@H](NC(=O)c2sc4nc(C)ccc4c2N)C3)[C@H](C)[C@H]1N` [Example 335, 3-amino-N-[(3R)-7-[(2R,3R,4R)-3-amino-4-methoxy-2-methylpyrrolidin-1-yl]-3,4-dihydro-2H-1-benzopyran-3-yl]-6-methylthieno[2,3-b]pyridine-2-carboxamide], for which the IC50 lay in the range of 1 to 50 nM.
Then `CCO[C@H]1CN(c2ccc3c(c2)OC[C@H](NC(=O)c2sc4nc(C)cc(C)c4c2N)C3)C[C@H]1N` [Example 324, 3-amino-N-[(3R)-7-[(3R,4S)-3-amino-4-ethoxypyrrolidin-1-yl]-3,4-dihydro-2H-1-benzopyran-3-yl]-4,6-dimethylthieno[2,3-b]pyridine-2-carboxamide], with 50 to 200 nM; and `Cc1ccc2c(N)c(C(=O)N[C@H]3COc4cc(N5CCC6(CNC6)C5)ccc4C3)sc2n1` [Example 306, 3-amino-N-[(3R)-7-{2,6-diazaspiro[3.4]octan-6-yl}-3,4-dihydro-2H-1-benzopyran-3-yl]-6-methylthieno[2,3-b]pyridine-2-carboxamide], with 1 to 50 nM.
Then `Cc1cnc2c(N)c(C(=O)N[C@H]3CCc4cc(N5C[C@H](OC(C)C)[C@@H](N)C5)ccc4C3)sc2n1` [Example 319, 7-amino-N-[(2S)-6-[(3S,4S)-3-amino-4-(propan-2-yloxy)pyrrolidin-1-yl]-1,2,3,4-tetrahydronaphthalen-2-yl]-3-methylthieno[2,3-b]pyrazine-6-carboxamide], with 50 to 200 nM; and `CO[C@H]1[C@@H](C)N(c2ccc3c(c2)OC[C@H](NC(=O)c2sc4nc(C)ccc4c2N)C3)C[C@@H]1N` [Example 336, 3-amino-N-[(3R)-7-[(2R,3R,4S)-4-amino-3-methoxy-2-methylpyrrolidin-1-yl]-3,4-dihydro-2H-1-benzopyran-3-yl]-6-methylthieno[2,3-b]pyridine-2-carboxamide], with 1 to 50 nM.
As for `COC[C@]1(C)CN(c2ccc3c(n2)CC[C@H](NC(=O)c2sc4nc(C)ccc4c2N)C3)C[C@H]1N` [Example 344, 3-amino-N-[(6S)-2-[(3R,4S)-4-amino-3-(methoxymethyl)-3-methylpyrrolidin-1-yl]-5,6,7,8-tetrahydroquinolin-6-yl]-6-methylthieno[2,3-b]pyridine-2-carboxamide], the figure is 50 to 200 nM.
As to `CN[C@H]1CN(c2ccc3c(n2)CC[C@H](NC(=O)c2sc4nc(C)cc(C)c4c2N)C3)C[C@@H]1OC` [Example 312, 3-amino-N-[(6S)-2-[(3S,4S)-3-methoxy-4-(methylamino)pyrrolidin-1-yl]-5,6,7,8-tetrahydroquinolin-6-yl]-4,6-dimethylthieno[2,3-b]pyridine-2-carboxamide], the 50% inhibitory concentration (IC50) was 50 to 200 nM.
Then `COC[C@H]1CN(c2ccc3c(n2)CC[C@H](NC(=O)c2sc4nc(C)cnc4c2N)C3)C[C@H]1N` [Example 299, 7-amino-N-[(6S)-2-[(3S,4S)-3-amino-4-(methoxymethyl)pyrrolidin-1-yl]-5,6,7,8-tetrahydroquinolin-6-yl]-3-methylthieno[2,3-b]pyrazine-6-carboxamide], with 50 to 200 nM; and `Cc1ccc2c(N)c(C(=O)N[C@H]3COc4cc(N5C[C@H](N)[C@@]6(CCCO6)C5)ccc4C3)sc2n1` [Example 310, 3-amino-N-[(3R)-7-[(5R,9S)-9-amino-1-oxa-7-azaspiro[4.4]nonan-7-yl]-3,4-dihydro-2H-1-benzopyran-3-yl]-6-methylthieno[2,3-b]pyridine-2-carboxamide], with 1 to 50 nM.
Then `Cc1ccc2c(N)c(C(=O)N[C@H]3COc4cc(N5C[C@H](N)[C@]6(CCCO6)C5)ccc4C3)sc2n1` [Example 307, 3-amino-N-[(3R)-7-[(5S,9S)-9-amino-1-oxa-7-azaspiro[4.4]nonan-7-yl]-3,4-dihydro-2H-1-benzopyran-3-yl]-6-methylthieno[2,3-b]pyridine-2-carboxamide], with 1 to 50 nM.
As for `Cc1ccc2c(N)c(C(=O)N[C@H]3COc4cc(N5C[C@@H](F)[C@@H](N)C5)ccc4C3)sc2n1` (single isomer, unassigned) [Example 3-6], the figure is 1 to 50 nM.
